# Measured values as given in publication PMC11696302 (Nature Communications, 2025).
# Biological target: T1, yCPT1 (cholinephosphotransferase) (Saccharomyces cerevisiae, UniProt P17898)
# T1 sequence (P17898 1-393): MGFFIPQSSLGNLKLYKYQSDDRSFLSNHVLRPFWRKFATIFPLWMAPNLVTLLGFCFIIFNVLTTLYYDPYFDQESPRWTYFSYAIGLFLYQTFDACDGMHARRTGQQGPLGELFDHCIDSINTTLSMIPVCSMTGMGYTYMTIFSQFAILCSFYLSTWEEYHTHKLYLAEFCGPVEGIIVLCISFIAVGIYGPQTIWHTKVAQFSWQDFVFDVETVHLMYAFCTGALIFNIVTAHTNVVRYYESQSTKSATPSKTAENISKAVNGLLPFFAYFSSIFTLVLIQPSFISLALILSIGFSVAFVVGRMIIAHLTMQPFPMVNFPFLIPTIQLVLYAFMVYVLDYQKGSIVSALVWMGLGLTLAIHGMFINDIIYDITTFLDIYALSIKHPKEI
# Test: cryo-EM structure
# Format: biochemical
structure (smiles),measurement,value
COc1ccc2c(c[n+](C)c3c4cc5c(cc4ccc23)OCO5)c1OC [chelerythrine],IC50,443 nM
